Measured values from US11109593B2, “Isoxazolin-5-one derivative and herbicide containing same as active ingredient” (HOKKO CHEMICAL INDUSTRY CO., LTD., priority 2017, dated 2021).

Tests used:
Type in all cases: in vivo
Echinochloa crus-galli [1] = assay: Test Example 1: herbicidal effect test by treatment of rice paddy soil (immediately after seeding); conditions: 120 g/10a active ingredient, dry weight vs untreated area, 14 days after treatment
Procedure, shortened: (§1)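 Values are herbicidal rates (%) derived from average plant dry weight in treated versus untreated pots 14 days after treatment, run in duplicate. Treatment was a water-diluted emulsion dropped into flooded paddy soil right after sowing, at 120 g active ingredient per 10 ares.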

Scirpus juncoides [2] = assay: as above; conditions: 120 g/10a active ingredient, dry weight vs untreated area, 14 days after treatment
Procedure, shortened: as §1

[3] = tested on: broad leaf weeds (Lindernia pyxidaria and Monochoria vaginalis); assay: as above; conditions: 120 g/10a active ingredient, dry weight vs untreated area, 14 days after treatment
Procedure, shortened: as §1

Echinochloa crus-galli [4] = assay: Test Example 2: herbicidal effect test by treatment during growing period in paddy rice cultivation (seven days after seeding); conditions: 120 g/10a active ingredient, assessed 14 days after treatment, dry weight vs untreated area
Procedure, shortened: (§2)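 Herbicidal rate (%) = {1 − treated/untreated mean plant dry weight} × 100, assessed in duplicate 14 days post-treatment. Emulsion formulations were diluted in water and dropped onto flooded (about 3 cm) paddy pots 7 days after seeding, giving 120 g a.i. per 10 ares. Plants were grown in a glass greenhouse.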

Scirpus juncoides [5] = assay: as above; conditions: 120 g/10a active ingredient, assessed 14 days after treatment, dry weight vs untreated area
Procedure, shortened: as §2

[6] = tested on: broad leaf weeds (Lindernia pyxidaria and Monochoria vaginalis); assay: as above; conditions: 120 g/10a active ingredient, assessed 14 days after treatment, dry weight vs untreated area
Procedure, shortened: as §2

Cc1c(Cc2c(Cl)cccc2N(S(=O)(=O)C(F)(F)F)S(=O)(=O)C(F)(F)F)c(=O)on1C(C)C [Compound 1-47]
Herbicidal rate (%) Echinochloa crus-galli (Echinochloa crus-galli [1]): 40% | Herbicidal rate (%) Scirpus juncoides (Scirpus juncoides [2]): 80% | Herbicidal rate (%) Lindernia pyxidaria [3]: 70% | Herbicidal rate (%) Monochoria vaginalis [3]: 70% | Herbicidal rate (%) Echinochloa crus-galli (Echinochloa crus-galli [4]): 40% | Herbicidal rate (%) Scirpus juncoides (Scirpus juncoides [5]): 70% | Herbicidal rate (%) Lindernia pyxidaria [6]: 40% | Herbicidal rate (%) Monochoria vaginalis [6]: 40%

Cc1c(Cc2ccccc2N(S(=O)(=O)C(F)(F)F)S(=O)(=O)C(F)(F)F)c(=O)on1C(C)c1ccc(Cl)cc1 (stereo not drawn) [Compound 1-1034]
Herbicidal rate (%) Echinochloa crus-galli (Echinochloa crus-galli [1]): 100% | Herbicidal rate (%) Scirpus juncoides (Scirpus juncoides [2]): 90% | Herbicidal rate (%) Lindernia pyxidaria [3]: 100% | Herbicidal rate (%) Monochoria vaginalis [3]: 100% | Herbicidal rate (%) Echinochloa crus-galli (Echinochloa crus-galli [4]): 90% | Herbicidal rate (%) Scirpus juncoides (Scirpus juncoides [5]): 90% | Herbicidal rate (%) Lindernia pyxidaria [6]: 80% | Herbicidal rate (%) Monochoria vaginalis [6]: 80%

Cc1c(Cc2ccccc2NS(=O)(=O)C(F)(F)F)c(=O)on1C(C)c1ccc(Cl)cc1 (stereo not drawn) [Compound 1-207]
Herbicidal rate (%) Echinochloa crus-galli (Echinochloa crus-galli [1]): 100% | Herbicidal rate (%) Scirpus juncoides (Scirpus juncoides [2]): 90% | Herbicidal rate (%) Lindernia pyxidaria [3]: 100% | Herbicidal rate (%) Monochoria vaginalis [3]: 100% | Herbicidal rate (%) Echinochloa crus-galli (Echinochloa crus-galli [4]): 60% | Herbicidal rate (%) Scirpus juncoides (Scirpus juncoides [5]): 70% | Herbicidal rate (%) Lindernia pyxidaria [6]: 60% | Herbicidal rate (%) Monochoria vaginalis [6]: 70%

CCN(c1ccccc1Cc1c(C)n(CC(C)C)oc1=O)S(=O)(=O)C(F)(F)F [Compound 1-263]
Herbicidal rate (%) Echinochloa crus-galli (Echinochloa crus-galli [1]): 50% | Herbicidal rate (%) Scirpus juncoides (Scirpus juncoides [2]): 60% | Herbicidal rate (%) Lindernia pyxidaria [3]: 80% | Herbicidal rate (%) Monochoria vaginalis [3]: 50% | Herbicidal rate (%) Echinochloa crus-galli (Echinochloa crus-galli [4]): 90% | Herbicidal rate (%) Scirpus juncoides (Scirpus juncoides [5]): 90% | Herbicidal rate (%) Lindernia pyxidaria [6]: 40% | Herbicidal rate (%) Monochoria vaginalis [6]: 60%

CC(C)c1c(Cc2ccccc2NS(=O)(=O)C(F)(F)F)c(=O)on1C(C)C [Compound 1-68]
Herbicidal rate (%) Echinochloa crus-galli (Echinochloa crus-galli [1]): 80% | Herbicidal rate (%) Scirpus juncoides (Scirpus juncoides [2]): 90% | Herbicidal rate (%) Lindernia pyxidaria [3]: 90% | Herbicidal rate (%) Monochoria vaginalis [3]: 80% | Herbicidal rate (%) Echinochloa crus-galli (Echinochloa crus-galli [4]): 40% | Herbicidal rate (%) Scirpus juncoides (Scirpus juncoides [5]): 80% | Herbicidal rate (%) Lindernia pyxidaria [6]: 70% | Herbicidal rate (%) Monochoria vaginalis [6]: 80%

Cc1c(Cc2ccccc2N(S(=O)(=O)C(F)(F)F)S(=O)(=O)C(F)(F)F)c(=O)on1CCc1ccc(F)cc1 [Compound 1-1044]
Herbicidal rate (%) Echinochloa crus-galli (Echinochloa crus-galli [1]): 90% | Herbicidal rate (%) Scirpus juncoides (Scirpus juncoides [2]): 40% | Herbicidal rate (%) Lindernia pyxidaria [3]: 60% | Herbicidal rate (%) Monochoria vaginalis [3]: 40% | Herbicidal rate (%) Echinochloa crus-galli (Echinochloa crus-galli [4]): 70% | Herbicidal rate (%) Scirpus juncoides (Scirpus juncoides [5]): 70% | Herbicidal rate (%) Lindernia pyxidaria [6]: 40% | Herbicidal rate (%) Monochoria vaginalis [6]: 40%

Cc1c(Cc2ccccc2N(S(=O)(=O)C(F)(F)F)S(=O)(=O)C(F)(F)F)c(=O)on1Cc1ccc(C#N)cc1 [Compound 1-1017]
Herbicidal rate (%) Echinochloa crus-galli (Echinochloa crus-galli [1]): 40% | Herbicidal rate (%) Scirpus juncoides (Scirpus juncoides [2]): 90% | Herbicidal rate (%) Lindernia pyxidaria [3]: 60% | Herbicidal rate (%) Monochoria vaginalis [3]: 90% | Herbicidal rate (%) Echinochloa crus-galli (Echinochloa crus-galli [4]): 0% | Herbicidal rate (%) Scirpus juncoides (Scirpus juncoides [5]): 80% | Herbicidal rate (%) Lindernia pyxidaria [6]: 80% | Herbicidal rate (%) Monochoria vaginalis [6]: 80%

CCC(CC)Cn1oc(=O)c(Cc2ccccc2N(CC)S(=O)(=O)C(F)(F)F)c1C [Compound 1-264]
Herbicidal rate (%) Echinochloa crus-galli (Echinochloa crus-galli [1]): 90% | Herbicidal rate (%) Scirpus juncoides (Scirpus juncoides [2]): 100% | Herbicidal rate (%) Lindernia pyxidaria [3]: 80% | Herbicidal rate (%) Monochoria vaginalis [3]: 90% | Herbicidal rate (%) Echinochloa crus-galli (Echinochloa crus-galli [4]): 80% | Herbicidal rate (%) Scirpus juncoides (Scirpus juncoides [5]): 90% | Herbicidal rate (%) Lindernia pyxidaria [6]: 50% | Herbicidal rate (%) Monochoria vaginalis [6]: 80%

CCCOC(=O)N(c1ccccc1Cc1c(C)n(C(C)COC)oc1=O)S(=O)(=O)C(F)(F)F (stereo not drawn) [Compound 1-634]
Herbicidal rate (%) Echinochloa crus-galli (Echinochloa crus-galli [1]): 90% | Herbicidal rate (%) Scirpus juncoides (Scirpus juncoides [2]): 90% | Herbicidal rate (%) Lindernia pyxidaria [3]: 90% | Herbicidal rate (%) Monochoria vaginalis [3]: 90% | Herbicidal rate (%) Echinochloa crus-galli (Echinochloa crus-galli [4]): 90% | Herbicidal rate (%) Scirpus juncoides (Scirpus juncoides [5]): 90% | Herbicidal rate (%) Lindernia pyxidaria [6]: 90% | Herbicidal rate (%) Monochoria vaginalis [6]: 90%
